Data as given in patent US20240116946A1 (Gilead Sciences, Inc., priority 2022, published 2024).
Read-outs that look alike come from different tables or passages of the source.

Assays:
SARS-CoV-2-NLuc = experiment: microbe, parasite or virus in culture; format: cell-based, SARS Coronavirus 2
[1] = target: recombinant SARS-CoV-2 Main protease (Mpro) (Severe acute respiratory syndrome coronavirus 2 (2019-nCoV) (SARS-CoV-2), UniProt P0DTD1); experiment: Cov Mpro Biochemical IC50 Assay; conditions: read-out: MPro IC50
[2] = Severe acute respiratory syndrome coronavirus, 48 h; read-out: MPro EC50
[3] = recombinant SARS-CoV-2 Mpro 7.5 nM, fluorogenic peptide substrate 40 μM
[4] = Severe acute respiratory syndrome coronavirus, 48 h, read-out: MPro EC50
[5] = recombinant SARS-CoV-2 Mpro, fluorogenic peptide substrate

SMILES	EC50 (SARS-CoV-2-NLuc; [2]) [nM]	IC50 [1, 3] [nM]	EC50 (SARS-CoV-2-NLuc; read-out: MPro EC50) [nM]	EC50 (SARS-CoV-2-NLuc; [4]) [nM]	IC50 [1, 5] [nM]
COc1ccc(Cl)c(-c2cc3[nH]c(=O)n(-c4cncc(CCC(=O)N5CCOCC5)c4)c(=O)c3s2)c1 [Example 575, 6-(2-chloro-5-methoxy-phenyl)-3-[5-(3-morpholino-3-oxo-propyl)-3-pyridyl]-1H-thieno[3,2-d]pyrimidine-2,4-dione]	235	6.66			
COc1cc(-c2cc3c(s2)c(=O)n(-c2cncc4nnn(C)c24)c(=O)n3CCC#N)c(Cl)cc1F (single isomer, unassigned) [Example 1059, 3-(6-(2-chloro-4-fluoro-5-methoxyphenyl)-3-(1-methyl-1H-[1,2,3]triazolo[4,5-c]pyridin-7-yl)-2,4-dioxo-3,4-dihydrothieno[3,2-d]pyrimidin-1(2H)-yl)propanenitrile]		44.7	101		
O=c1[nH]c2cc(-c3ccccc3Cl)ccc2c(=O)n1-c1cnccc1C1CCOCC1 [Example 129]				1230	1030
Cn1nnc2cncc(-n3c(=O)c4sc(-c5cc(Cl)ccc5C#N)cc4n(CCC#N)c3=O)c21 [Example 886]		36.1		144	
COc1cc(-c2cc3[nH]c(=O)n(-c4cncc5ccccc45)c(=O)c3s2)c(Cl)cn1 [Example 365]				343	100
O=c1[nH]c2cc(-c3c(Cl)cccc3-c3ccncc3F)ccc2c(=O)n1-c1cncc2ccccc12 [Example 332]				39	15.3
O=c1[nH]c2cc(-c3ccccc3Cl)sc2c(=O)n1-c1cnccc1N1CCN(C2COC2)CC1 [Example 117, 6-(2-chlorophenyl)-3-(4-(4-(oxetan-3-yl)piperazin-1-yl)pyridin-3-yl)thieno[3,2-d]pyrimidine-2,4(1H,3H)-dione]	627				156
O=c1[nH]c2cc(-c3ccccc3Cl)cnc2c(=O)n1-c1cncc2ccccc12 [Example 30]				380	17.6
COc1cc(-c2cc3c(s2)c(=O)n(-c2cncc4ccncc24)c(=O)n3CCC#N)c(Cl)cc1F (single isomer, unassigned) [Example 1097, 3-[6-(2-chloro-4-fluoro-5-methoxy-phenyl)-3-(2,6-naphthyridin-4-yl)-2,4-dioxo-thieno[3,2-d]pyrimidin-1-yl]propanenitrile]		42.5	33.2		
Cc1c(-c2cccc(Cl)c2-c2ccc3c(=O)n(-c4cncc5ccccc45)c(=O)[nH]c3c2)cnn1C [Example 243]				12.2	11.1
COc1cc(-c2cc3c(s2)c(=O)n(-c2cncc4nc(C(F)(F)F)n(C)c24)c(=O)n3CCC#N)c(C#N)cc1F [Example 859]		62.8		169	
CC(C)(C)c1cncc(-n2c(=O)[nH]c3cc(-c4ccccc4Cl)sc3c2=O)c1 [Example 577]	12100	> 50000			
N#Cc1ncccc1-c1cc2[nH]c(=O)n(-c3cncc4ccccc34)c(=O)c2s1 [Example 538]		59.8		826	
Cc1cc(-c2cc3c(s2)c(=O)n(-c2cncc4ccccc24)c(=O)n3CCC#N)c(C#N)cc1F [Example 823]		16.3		25.7	
COc1ccc(Cl)c(-c2cc3[nH]c(=O)n(-c4cncc5ccc(N6CC(F)(F)OC(F)(F)C6)cc45)c(=O)c3s2)c1 [Example 229]				28.9	22.5
Cc1ccc2cncc(-n3c(=O)[nH]c4cc(-c5ccccc5Cl)sc4c3=O)c2c1 [Example 106, 6-(2-chlorophenyl)-3-(6-methylisoquinolin-4-yl)thieno[3,2-d]pyrimidine-2,4(1H,3H)-dione]	73				23.7
Cc1ccc(Cl)c(-c2cc3[nH]c(=O)n(-c4cncc5ccccc45)c(=O)c3s2)c1 [Example 338]				37.5	13.8
COc1cc(-c2cc3[nH]c(=O)n(-c4cncc5ccccc45)c(=O)c3s2)c(C)cc1Cl [Example 716]		15.9		18.7	
CCc1cncc(-n2c(=O)[nH]c3cc(-c4ccccc4Cl)sc3c2=O)c1 [Example 217]				96.2	66.6
NC(=O)c1cncc(-c2cccc(Cl)c2-c2ccc3c(=O)n(-c4cncc5ccccc45)c(=O)[nH]c3c2)c1 [Example 185]				489	< 3.01
Cc1c(Cl)cncc1-n1c(=O)c2sc(-c3ccccc3Cl)cc2n(CCC#N)c1=O [Example 834]	34.2	19.5			

SMILES	EC50 (SARS-CoV-2-NLuc; [2]) [nM]	IC50 [1, 3] [nM]	EC50 (SARS-CoV-2-NLuc; read-out: MPro EC50) [nM]	EC50 (SARS-CoV-2-NLuc; [4]) [nM]	IC50 [1, 5] [nM]
O=c1[nH]c2cc(-c3ccccc3Cl)sc2c(=O)n1-c1cnnc2ccccc12 [Example 131]				633	97
COc1ccc(Cl)c(-c2cc3[nH]c(=O)n(-c4cncc5ccc(N6CCOCC6)cc45)c(=O)c3s2)c1 [Example 432]	6.37	6.99			
N#Cc1cnccc1-c1cc2[nH]c(=O)n(-c3cncc4ccccc34)c(=O)c2s1 [Example 531]		50		518	
COc1cnc(Cl)c(-c2cc3c(s2)c(=O)n(-c2cncc4ccccc24)c(=O)n3CCC#N)c1 (single isomer, unassigned) [Example 1088, 3-(6-(2-chloro-5-methoxypyridin-3-yl)-3-(isoquinolin-4-yl)-2,4-dioxo-3,4-dihydrothieno[3,2-d]pyrimidin-1(2H)-yl)propanenitrile]		1.65	3.27		
Cc1nn(C(C)(C)C)cc1-c1cccc(Cl)c1-c1ccc2c(=O)n(-c3cncc4ccccc34)c(=O)[nH]c2c1 [Example 274]				95.7	83.5
N#Cc1ccc(OC(F)F)cc1-c1ccc2c(=O)n(-c3cncc4ccccc34)c(=O)[nH]c2c1 [Example 326]				106	42.5
Cc1ccc(-c2ccc3c(=O)n(-c4cncc5ccccc45)c(=O)[nH]c3c2)c(Cl)c1 [Example 192]				3890	> 50000
COc1cc(-c2cc3c(s2)c(=O)n(-c2cncc(F)c2C)c(=O)n3CCC#N)c(Cl)cc1F (single isomer, unassigned) [Example 1027, 3-[6-(2-chloro-4-fluoro-5-methoxy-phenyl)-3-(5-fluoro-4-methyl-3-pyridyl)-2,4-dioxo-thieno[3,2-d]pyrimidin-1-yl]propanenitrile]		61.9	66.1		
CN1C(=O)COc2cc(-c3cccc(Cl)c3-c3ccc4c(=O)n(-c5cncc6ccccc56)c(=O)[nH]c4c3)ccc21 [Example 197]				8.58	13.9
N#CCCn1c(=O)n(-c2cncc3ccccc23)c(=O)c2sc(-c3c(Cl)cccc3-c3cncc(C#N)c3)cc21 [Example 935]		14.3		24.6	
COc1cc(-c2cc3c(s2)c(=O)n(-c2cccnc2)c(=O)n3CCC#N)c(C#N)cc1F [Example 799]	42.9	10.3			
COc1cc(-c2cc3c(s2)c(=O)n(-c2cncc(Cl)c2C)c(=O)n3CCC#N)c(C#N)cc1F [Example 806]	6.99	5.15			
O=c1[nH]c2cc(-c3ccccc3Cl)sc2c(=O)n1-c1cncc2cnn(CC(F)(F)F)c12 [Example 496]		31.6		138	
O=c1[nH]c2cc(-c3ccccc3Cl)sc2c(=O)n1-c1cncc2ccc(N3CC4(C3)CC(F)(F)C4)cc12 [Example 419]		21.1		74.9	
O=c1[nH]c2cc(-c3ccccc3Cl)sc2c(=O)n1-c1cncc2ccc(N3CCO[C@H](C(F)(F)F)C3)cc12 [Example 417]		17.8		160	
O=c1[nH]c2cc(-c3ccccc3Cl)sc2c(=O)n1-c1cnccc1N1CCNCC1 [Example 115, 6-(2-chlorophenyl)-3-(4-(piperazin-1-yl)pyridin-3-yl)thieno[3,2-d]pyrimidine-2,4(1H,3H)-dione]	1530				522
COc1cc(-c2cc3c(s2)c(=O)n(-c2cncc4nn(C)cc24)c(=O)n3CCC#N)c(Cl)cc1F [Example 909]		5.94		12.3	
COc1ccc(C#N)c(-c2cc3[nH]c(=O)n(-c4cncc5sccc45)c(=O)c3s2)c1 [Example 608]		< 2.54		< 4.97	
COc1cnc(Cl)c(-c2cc3c(s2)c(=O)n(-c2cncc4cnn(C)c24)c(=O)n3CCC#N)c1 (single isomer, unassigned) [Example 1091, 3-(6-(2-chloro-5-methoxypyridin-3-yl)-3-(1-methyl-1H-pyrazolo[4,3-c]pyridin-7-yl)-2,4-dioxo-3,4-dihydrothieno[3,2-d]pyrimidin-1(2H)-yl)propanenitrile]		141	451		
O=c1[nH]c2cc(-c3ccccc3Cl)sc2c(=O)n1-c1cncc2ccc(N3CC4(CCCO4)C3)cc12 [Example 402]		6.05		12.1	
O=C1NCc2ccc(-c3cccc(Cl)c3-c3ccc4c(=O)n(-c5cncc6ccccc56)c(=O)[nH]c4c3)cc21 [Example 236]				228	86.8
